pEC50: −log10 of the molar value. Read-outs that look alike come from different tables or passages of the source.
Columns and labels:
[1] = test system: spontaneously contracting neonatal cardiomyocytes; experiment: Cardiomyocyte contraction bioassay: chronotropic response to patient IgG after preincubation with receptor loop peptides; assay type: cell-based, rat; conditions: IgG from three AD/vascular dementia patients preincubated 1 hour at 4° C. with 1 μg peptide per 1 μg IgG protein
Procedure: Cultures of neonatal cardiomyocytes were prepared from new-born, one to three days old rats essentially as described in [15]. Chinese hamster ovary cells stably transfected with the A-isoform of the human α1-AR (CHO-α1) were grown in F12 HAM medium supplemented with glutamine, 10% FCS and 1% penicillin streptomycin at 37° C. and 5% CO2.
Functional autoantibodies were detected utilizing the chronotropic responses of cultivated spontaneously contracting neonatal cardiomyocytes. For monitoring the contraction rate of neonatal cardiomyocytes a standardized bioassay based on computer-assisted recording of the contraction rate was employed.
Immunoglobulin (IgG) fractions from serum samples were prepared according to a standard procedure as described in [6]. Patients IgG were added to cultures of neonatal cardiomyocytes to a final dilution of 1:40. After incubation at 37° C. for 60 minutes, the pulsation rate was measured. A total of up to 30 cells or cell clusters for each sample of a given immunoglobulin fraction was analysed. The chronotropic response to the exposition to patient IgG compared to preceding control recordings is given as increases in the number of contractions per minute. Identification of the target GPCR type was performed using specific receptor antagonists, 10^-7 M prazosin to block the α1-AR and 10^-7 M ICI […] for the β2-AR.
For mapping of the target site of agonistic autoantibodies on the receptor, IgG fractions were preincubated for 1 hour at 4° C. with an excess of synthetic peptides corresponding to amino acid sequences of the extracellular loop1 (LGYWAFGRVFCN) or the extracellular loop2 (PAPEDETICQINEE) of the human α1-AR (1 μg peptide per 1 μg IgG protein).

[2] = molecular target: patient IgG (agAAB to the α1-AR); experiment: ELISA competition of patient IgG binding to the immobilized peptide by free α1-AR loop1 peptide; design: species or system human; conditions: free peptide 0.3 nM up to 5 μM, patient IgG preincubated with free peptide 15 minutes, nonlinear regression, read-out: EC50 value, competition of IgG binding to the immobilized peptide by soluble α1-AR loop 1 peptide
Procedure: Shown are data from representative experiments run in triplicates. Values are corrected for unspecific binding. A: Dependence of antibody binding on patient IgG protein. The given amount of IgG protein refers to 100 μl reaction volume (□) binding in the presence of 0.15 M NaCl; (●) binding in the presence of 0.5 M NaCl. B: Time-dependence of antibody binding. C: Competition of binding by increasing concentrations of the free α1-AR loop1 peptide. Concentrations of the free peptide ranged from 0.3 nM to 5.0 μM. The patient IgG was preincubated with the free peptide in solution for 15 minutes.
The binding of agonistic IgG preparations was characterized using standard ELISA techniques. Briefly, biotinylated peptides corresponding to either the first or the second extracellular loop of the human α1A-AR were coupled to pre-blocked streptavidin-coated 96-well plates (Pierce). All experimental steps were performed at room temperature. If not indicated otherwise, 5 μg of IgG protein was used and the incubation time was 30 minutes. As secondary antibody anti-human horseradish conjugated anti-IgG was used. The antibody binding was visualized by the 1-Step Ultra TMB ELISA (Thermo Scientific). The optical density was quantified at 450 nm using a SLT Spectra multiplate reader (TECAN).

[3] = molecular target: T1, A-isoform of the human α1-AR (CHO-α1) (Homo sapiens, UniProt P35348); experiment: Intracellular calcium (Cai) mobilization in CHO-α1 cells; assay type: cell-based
T1 construct: expressed in transfected cells; host or cells: CHO (Chinese hamster ovary) cells, stably transfected
T1 sequence (P35348 1-466): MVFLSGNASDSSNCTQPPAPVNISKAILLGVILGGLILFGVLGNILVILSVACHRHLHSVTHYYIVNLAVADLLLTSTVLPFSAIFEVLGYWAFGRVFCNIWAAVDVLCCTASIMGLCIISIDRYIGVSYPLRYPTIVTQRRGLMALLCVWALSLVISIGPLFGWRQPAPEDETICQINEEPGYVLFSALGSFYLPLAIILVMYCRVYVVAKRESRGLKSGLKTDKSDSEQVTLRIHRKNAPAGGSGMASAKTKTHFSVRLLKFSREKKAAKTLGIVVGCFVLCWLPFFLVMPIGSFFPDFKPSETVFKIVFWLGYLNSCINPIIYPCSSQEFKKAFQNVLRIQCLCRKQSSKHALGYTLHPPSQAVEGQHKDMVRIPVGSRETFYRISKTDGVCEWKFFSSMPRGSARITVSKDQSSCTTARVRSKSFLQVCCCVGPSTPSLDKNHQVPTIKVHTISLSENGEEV
Procedure: The data represent mean values of independent measurements of three individual cell populations. A: Time dependence of Cai mobilization by patient IgG compared to the α1-AR agonist phenylephrine (PE). The addition of patient IgG preparation and PE is indicated by the arrow. The additions were (▴) 2.5 μg patient IgG; (▪) 5 μg patient IgG; (●) 5 μM PE. B: Effect of 5 μg human control IgG (Δ) and 5 μg patient IgG (♦) on Cai mobilization. The addition of IgG preparations is indicated by the arrow. C: Inhibitory effect of preincubation of patient IgG with the free α1-AR loop1 peptide. Patient IgG was preincubated with 0.25 μM peptide for 15 minutes before addition to the cells. Peak values (five of each individual measurement) were taken for assessing the decrement in Cai mobilization. […]
The potential of patients IgG fractions to mobilise intracellular calcium (Cai) was assessed using Chinese hamster ovary cells stably transfected with the A-isoform of the human α1-AR (CHO-α1). The cells were trypsinized and plated on black clear bottom 96-well plates suited for fluorescence measurements (Greiner) at a density of 30 000 cells per well. […] Cai was measured on a Perkin Elmer Victor X2 fluorescence multiplate reader equipped with an injector unit. The cells were excited at wave lengths alternating between 340 nm and 380 nm and the fluorescence signal emitted at 510 nm was recorded. […]

Sequence | Effect of peptide preincubation on chronotropic response to patient IgG [1] | pEC50 ([2]; listed as extracellular loop1 peptide) | pEC50 ([2]; listed as α1-AR loop 1 peptide) | Effect of the peptide itself on Cai ([3]; CHO-α1 cells, peptide alone) | Effect of peptide preincubation on elevation of Cai by patient IgG ([3]; patient IgG preincubated with 0.25 μM peptide for 15 minutes, p<0.01) | Effect of peptide preincubation on chronotropic response to patient IgG ([1]; listed as L1 peptide)
PAPEDETICQINEE (listed as Homo sapiens) [loop2 peptide, synthetic peptide corresponding to extracellular loop2 of the human α1-AR] | did not affect | – | – | – | – | –
LGYWAFGRVFCN [loop1 peptide, synthetic peptide corresponding to extracellular loop1 of the human α1-AR] | nearly abolished | 7.52 | ~7.52 | no effect | reduced significantly | abolished
